In assay [1] the test system is blackgrass. Briefly: Test A preemergence. The class given is in vivo, Alopecurus myosuroides. The settings on record: 1000 g ai/ha, 0 to 100 scale (0 no effect, 100 complete control), 10 days. Put shortly:
(§1)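 Visual injury ratings on a 0–100 scale (100 = complete control) versus untreated controls, taken 10 days after treatment in greenhouse. Preemergence: directed soil spray onto seeded loam/sand. Postemergence: foliar application at one- to two-leaf stage, plants 2–10 cm. Formulation: non-phytotoxic solvent plus surfactant.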

The subject of assay [2] is foxtail, giant. As to the kind of experiment: Test A preemergence. Type of assay: in vivo, Setaria faberi. The settings on record: 1000 g ai/ha, 0 to 100 scale (0 no effect, 100 complete control), 10 days. Put shortly:
as §1

In assay [3] the test system is goosegrass. As to the kind of experiment: Test A preemergence. The settings on record: 1000 g ai/ha, 0 to 100 scale (0 no effect, 100 complete control), 10 days. The class given is in vivo, Eleusine indica. In a few lines: as §1
Assay [4] relates to kochia. Briefly: Test A preemergence. Type of assay: in vivo, Bassia scoparia. Particulars: 1000 g ai/ha, 0 to 100 scale (0 no effect, 100 complete control), 10 days. Put shortly:
as §1

Assay [5] has as its system pigweed, palmer. As to the kind of experiment: Test A preemergence. The class given is in vivo, Amaranthus palmeri. The settings on record: 1000 g ai/ha, 0 to 100 scale (0 no effect, 100 complete control), 10 days. Put shortly:
as §1

Assay [6] relates to ragweed. As to the kind of experiment: Test A preemergence. The class given is in vivo, Ambrosia artemisiifolia. The settings on record: 1000 g ai/ha, 0 to 100 scale (0 no effect, 100 complete control), 10 days. Put shortly:
as §1

The test system of assay [7] is ryegrass, Italian. As to the kind of experiment: Test A preemergence. Particulars: 1000 g ai/ha, 0 to 100 scale (0 no effect, 100 complete control), 10 days. Type of assay: in vivo, Lolium multiflorum. Put shortly:
as §1

Assay [8] relates to blackgrass. As to the kind of experiment: Test A postemergence. The class given is in vivo, Alopecurus myosuroides. Particulars: 1000 g ai/ha, Postemergence, 0 to 100 scale. Put shortly: as §1
Assay [9] has as its system foxtail, giant. Briefly: Test A postemergence. Particulars: 1000 g ai/ha, Postemergence, 0 to 100 scale. The class given is in vivo, Setaria faberi. Put shortly:
as §1

Assay [10] deals with goosegrass. Briefly: Test A postemergence. The class given is in vivo, Eleusine indica. The settings on record: 1000 g ai/ha, Postemergence, 0 to 100 scale. In a few lines:
as §1

Assay [11] deals with kochia. As to the kind of experiment: Test A postemergence. Type of assay: in vivo, Bassia scoparia. Particulars: 1000 g ai/ha, Postemergence, 0 to 100 scale. In a few lines:
as §1

For assay [12], the system named is pigweed, palmer. As to the kind of experiment: Test A postemergence. Type of assay: in vivo, Amaranthus palmeri. Particulars: 1000 g ai/ha, Postemergence, 0 to 100 scale. In a few lines: as §1
Assay [13] relates to ragweed. As to the kind of experiment: Test A postemergence. Particulars: 1000 g ai/ha, Postemergence, 0 to 100 scale. The class given is in vivo, Ambrosia artemisiifolia. In a few lines: as §1
Assay [14] deals with ryegrass, Italian. As to the kind of experiment: Test A postemergence. Type of assay: in vivo, Lolium multiflorum. The settings on record: 1000 g ai/ha, Postemergence, 0 to 100 scale. In a few lines:
as §1

For another assay, the system named is galium. As to the kind of experiment: Test A postemergence. The class given is in vivo, Galium aparine. The settings on record: 1000 g ai/ha, Postemergence, 0 to 100 scale. In a few lines:
as §1

The subject of a further assay is horseweed. Briefly: Test A postemergence. The class given is in vivo, Erigeron canadensis. Particulars: 1000 g ai/ha, Postemergence, 0 to 100 scale. In a few lines:
as §1

For the next assay, the system named is barnyardgrass. As to the kind of experiment: Test B flooded paddy test. The class given is in vivo, Echinochloa crus-galli. Particulars: 250 g ai/ha, Flood, 13 days, 0 to 100 scale (0 no effect, 100 complete control). The protocol:
(§2) Plant species in the flooded paddy test selected from barnyardgrass (Echinochloa crus-galli), ducksalad (Heteranthera limosa), rice (Oryza sativa), and sedge, umbrella (small-flower umbrella sedge, Cyperus difformis) were grown to the 2-leaf stage for testing. At time of treatment, test pots were flooded to 3 cm above the soil surface, treated by application of test compounds directly to the paddy water, and then maintained at that water depth for the duration of the test. Treated plants and controls were maintained in a greenhouse for 13 days, after which time all species were compared to controls and visually evaluated. Plant response ratings, summarized in Table B, are based on a scale of 0 to 100 where 0 is no effect and 100 is complete control. A dash (-) response means no test result.

The test system of another assay is ducksalad. As to the kind of experiment: Test B flooded paddy test. Type of assay: in vivo, Heteranthera limosa. The settings on record: 250 g ai/ha, Flood, 13 days, 0 to 100 scale (0 no effect, 100 complete control). The protocol: as §2
In a further assay the test system is rice. Briefly: Test B flooded paddy test. The settings on record: 250 g ai/ha, Flood, 13 days, 0 to 100 scale (0 no effect, 100 complete control). Type of assay: in vivo, Oryza sativa. Here is the method:
as §2

Another assay has as its system sedge, umbrella. Briefly: Test B flooded paddy test. The settings on record: 250 g ai/ha, Flood, 13 days, 0 to 100 scale (0 no effect, 100 complete control). The class given is in vivo, Cyperus difformis. Here is the method:
as §2

On to `COCC1CN(C(=O)c2ccnc(-n3cncn3)c2)c2cccc(Cl)c2O1` (stereo not shown) [Compound 35, [8-Chloro-2,3-dihydro-2-(methoxymethyl)-4H-1,4-benzoxazin-4-yl][2-(1H-1,2,4-triazol-1-yl)-4-pyridinyl]methanone], for which the pest or weed control at 1000 g/ha came to 70% with blackgrass [1] (Alopecurus myosuroides, pre-emergence, 240 h, read-out: Plant response rating, Blackgrass); 100% in the assay with foxtail, giant [2] (Setaria faberi, pre-emergence, 240 h, read-out: Plant response rating, Foxtail, Giant); 90% with goosegrass [3] (Eleusine indica, pre-emergence, 240 h, read-out: Plant response rating, Goosegrass); 50% in the assay on kochia [4] (Bassia scoparia, pre-emergence, 240 h, read-out: Plant response rating, Kochia); 90% in the assay with pigweed, palmer [5] (Amaranthus palmeri, pre-emergence, 240 h, read-out: Plant response rating, Pigweed, Palmer); 20% in the assay with ragweed [6] (Ambrosia artemisiifolia, pre-emergence, 240 h, read-out: Plant response rating, Ragweed). Also, the pest or weed control at 1000 g/ha is 90% in the assay with ryegrass, Italian [7] (Lolium multiflorum, pre-emergence, 240 h, read-out: Plant response rating, Ryegrass, Italian); 60% with blackgrass [8] (Alopecurus myosuroides, post-emergence, 240 h, read-out: Plant response rating, Blackgrass); 90% with foxtail, giant [9] (Setaria faberi, post-emergence, 240 h, read-out: Plant response rating, Foxtail, Giant); 50% in the assay on goosegrass [10] (Eleusine indica, post-emergence, 240 h, read-out: Plant response rating, Goosegrass); 50% in the assay with kochia [11] (Bassia scoparia, post-emergence, 240 h, read-out: Plant response rating, Kochia); 50% with pigweed, palmer [12] (Amaranthus palmeri, post-emergence, 240 h, read-out: Plant response rating, Pigweed, Palmer). Besides, the pest or weed control at 1000 g/ha worked out at 50% in the assay on ragweed [13] (Ambrosia artemisiifolia, post-emergence, 240 h, read-out: Plant response rating, Ragweed); 80% in the assay with ryegrass, Italian [14] (Lolium multiflorum, post-emergence, 240 h, read-out: Plant response rating, Ryegrass, Italian); 80% in the assay with galium (Galium, post-emergence, 240 h, read-out: Plant response rating, Galium); 20% with horseweed (Erigeron canadensis, post-emergence, 240 h, read-out: Plant response rating, Horseweed). The pest or weed control at 250 g/ha with barnyardgrass (Echinochloa crus-galli, 312 h, read-out: Plant response rating, Barnyardgrass) is 0%; in the assay with ducksalad (Heteranthera limosa, 312 h, read-out: Plant response rating, Ducksalad) it was 30%; in the assay on sedge, umbrella (Cyperus difformis, 312 h, read-out: Plant response rating, Sedge, Umbrella), 40%. In the assay on rice (Oryza sativa, 312 h, read-out: Plant response rating, Rice), the plant injury at 250 g/ha came to 0%.
For `Cc1ccc(-n2cncn2)cc1C(=O)N1CC(C)Oc2c(Cl)cccc21` (stereo not shown) [Compound 33], the “Plant response rating, Blackgrass” value was found to be 100 with blackgrass [1] and 90 in the assay on blackgrass [8]. The “Plant response rating, Foxtail, Giant” value stood at 100 with foxtail, giant [2] and 100 with foxtail, giant [9]. Moreover, the “Plant response rating, Goosegrass” value with goosegrass [3] was 100; in the assay on goosegrass [10], 90. Further, the “Plant response rating, Kochia” value in the assay with kochia [4] and in the assay on kochia [11] was 70 each time. The “Plant response rating, Pigweed, Palmer” value with pigweed, palmer [5] is reported as 100; with pigweed, palmer [12], 100. In addition, the “Plant response rating, Ragweed” value in the assay on ragweed [6] came to 100; in the assay on ragweed [13] it was 80. For the same compound, the “Plant response rating, Ryegrass, Italian” value in the assay on ryegrass, Italian [7] is recorded as 100; in the assay on ryegrass, Italian [14], 100. Besides, in the assay on galium, the “Plant response rating, Galium” value is 100. Further, the “Plant response rating, Horseweed” value in the assay with horseweed is 30. In the assay on barnyardgrass, the “Plant response rating, Barnyardgrass” value is 30. Also, the “Plant response rating, Ducksalad” value in the assay with ducksalad is on record as 30. In addition, in the assay on rice, the “Plant response rating, Rice” value is 0. In the assay with sedge, umbrella, the “Plant response rating, Sedge, Umbrella” value turned out to be 65.

The values are drawn from patent US20260262643A1, “HERBICIDAL BENZOXAZINES” (FMC CORPORATION, priority 2022, published 2026).
